Test results taken from the NIST ThermoML archive (doi:10.1021/je700308j).
“And” between values parts separate entries of the source, which are not always exact repeats. Identical values can stand only once.

Assay: excess molar enthalpy (molar enthalpy of mixing); xn = mol fraction of the nth substance listed
Conditions: 101 kPa, Liquid, Flow calorimetry

C1CCCC1 [cyclopentane] + CCCCCCCCCCO
excess molar enthalpy
Conditions | x1 = 0.336 | x1 = 0.465 | x1 = 0.575 | x1 = 0.67 | x1 = 0.752 | x1 = 0.89 | x1 = 0.975
298.15 K | 0.0786 kcal/mol and 0.0778 kcal/mol | 0.0965 kcal/mol | 0.104 kcal/mol | 0.105 kcal/mol | 0.101 kcal/mol | 0.0851 kcal/mol | –
298.65 K | – | – | – | – | – | – | 0.0495 kcal/mol

C1CCCC1 [cyclopentane] + CCCCCCCCCO
298.15 K
Conditions | excess molar enthalpy [kcal/mol]
x1 = 0.171 | 0.0418
x1 = 0.316 | 0.0712
x1 = 0.442 | 0.091
x1 = 0.552 | 0.101
x1 = 0.649 | 0.104
x1 = 0.735 | 0.102
x1 = 0.812 | 0.0962
x1 = 0.881 | 0.0862
x1 = 0.943 | 0.07
x1 = 0.972 | 0.0548

C1CCCC1 [cyclopentane] + CCCCCCCCO
298.15 K
Conditions | excess molar enthalpy [kcal/mol]
x1 = 0.157 | 0.0349
x1 = 0.295 | 0.0632
x1 = 0.418 | 0.0844
x1 = 0.528 | 0.0971
x1 = 0.626 | 0.104
x1 = 0.715 | 0.105
x1 = 0.796 | 0.0987
x1 = 0.87 | 0.0889
x1 = 0.938 | 0.0725
x1 = 0.97 | 0.0576

C1CCCC1 [cyclopentane] + CCCCCCCO
298.15 K
Conditions | excess molar enthalpy
x1 = 0.143 | 0.0296 kcal/mol
x1 = 0.273 | 0.0554 kcal/mol
x1 = 0.392 | 0.0786 kcal/mol
x1 = 0.5 | 0.0937 kcal/mol
x1 = 0.6 | 0.104 kcal/mol
x1 = 0.692 | 0.106 kcal/mol
x1 = 0.778 | 0.102 kcal/mol
x1 = 0.857 | 0.0921 kcal/mol and 0.0923 kcal/mol
x1 = 0.931 | 0.075 kcal/mol
x1 = 0.966 | 0.0603 kcal/mol

C1CCCC1 [cyclopentane] + CCCCCCO
298.15 K
Conditions | excess molar enthalpy
x1 = 0.128 | 0.0277 kcal/mol
x1 = 0.249 | 0.0484 kcal/mol
x1 = 0.362 | 0.0707 kcal/mol
x1 = 0.469 | 0.0894 kcal/mol and 0.0897 kcal/mol
x1 = 0.57 | 0.102 kcal/mol
x1 = 0.665 | 0.108 kcal/mol
x1 = 0.756 | 0.105 kcal/mol
x1 = 0.841 | 0.0954 kcal/mol
x1 = 0.923 | 0.0778 kcal/mol
x1 = 0.962 | 0.0619 kcal/mol

C1CCCC1 [cyclopentane] + CCCCCO
298.15 K
Conditions | excess molar enthalpy [kcal/mol]
x1 = 0.113 | 0.0229
x1 = 0.223 | 0.0451
x1 = 0.33 | 0.0674
x1 = 0.434 | 0.0882
x1 = 0.535 | 0.105
x1 = 0.633 | 0.115
x1 = 0.728 | 0.115
x1 = 0.821 | 0.105
x1 = 0.912 | 0.0849
x1 = 0.956 | 0.0674
